SMILES strings stand for the structures. pIC50: −log10 of the molar value. Counter-ions that a name gives are not always drawn.

IC50 data for six compounds are collected here from patent US20080015146A1, “Dpp-IV Inhibitors” (SANTHERA PHARMACEUTICALS (DEUTSCHLAND) AG, priority 2004, published 2008).

This assay addresses T1, DPP-IV (Homo sapiens, UniProt P27487).
T1 construct: Soluble human DPP-IV lacking the transmembrane anchor (Gly31-Pro766); Pre-Pro-alpha-mating factor secretion leader (N, cleaved yes); made in house
Briefly: Continuous fluorimetric assay of inhibition of DPP-IV peptidase activity (cleavage of Gly-Pro-AMC). Type of assay: biochemical. As to conditions: substrate Gly-Pro-AMC 16 μM, pH 7.4, 25° C., 1% DMSO; assays carried out with human and porcine DPP-IV (comparable activities). On the procedure:
Inhibition of DPP-IV peptidase activity was monitored with a continuous fluorimetric assay. This assay is based on the cleavage of the substrate Gly-Pro-AMC (Bachem) by DPP-IV, releasing free AMC. The assay is carried out in 96-well microtiterplates. In a total volume of 100 μl compounds are preincubated with […] DPP-IV employing a buffer containing 10 mM Hepes, 150 mM NaCl, 0.005% Tween 20 (pH 7.4). […] The final concentration of DMSO is 1%. The inhibitory potential of the compounds were determined.
Soluble human DPP-IV lacking the transmembrane anchor (Gly31-Pro766) was expressed in a recombinant YEAST-strain as Pre-Pro-alpha-mating fusion. The secreted product (rhuDPP-IV-Gly31-Pro766) was purified from fermentation broth (>90% purity).

T1 sequence (P27487 31-766): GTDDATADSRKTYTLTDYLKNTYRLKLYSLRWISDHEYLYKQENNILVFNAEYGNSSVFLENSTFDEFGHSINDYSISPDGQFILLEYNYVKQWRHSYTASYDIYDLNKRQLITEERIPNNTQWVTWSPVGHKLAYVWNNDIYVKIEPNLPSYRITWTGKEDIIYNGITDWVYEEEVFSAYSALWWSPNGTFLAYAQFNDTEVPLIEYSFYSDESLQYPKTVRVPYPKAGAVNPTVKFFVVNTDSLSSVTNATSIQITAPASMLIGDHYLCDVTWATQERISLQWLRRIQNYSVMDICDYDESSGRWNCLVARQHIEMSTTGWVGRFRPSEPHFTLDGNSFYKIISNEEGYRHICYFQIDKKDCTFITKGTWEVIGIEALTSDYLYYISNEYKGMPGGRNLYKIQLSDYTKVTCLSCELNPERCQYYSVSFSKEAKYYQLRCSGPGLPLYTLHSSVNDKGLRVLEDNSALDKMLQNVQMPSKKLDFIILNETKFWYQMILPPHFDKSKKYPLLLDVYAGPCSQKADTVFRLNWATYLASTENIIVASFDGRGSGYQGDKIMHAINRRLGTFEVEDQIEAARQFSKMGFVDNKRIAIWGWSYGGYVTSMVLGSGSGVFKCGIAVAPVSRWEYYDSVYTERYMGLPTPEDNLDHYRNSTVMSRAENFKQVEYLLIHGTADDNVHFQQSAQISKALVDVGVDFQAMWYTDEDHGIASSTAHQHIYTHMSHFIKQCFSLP

In turn, `N[C@@H](CC(=O)N1CCC[C@H]1c1nc(-c2cccc(F)c2)no1)Cc1ccccc1F` [Example 3, (R)-3-Amino-1-{(S)-2-[3-(3-fluoro-phenyl) [1,2,4]oxadiazol-5-yl)-pyrrolidin-1-yl}-4-(2-fluoro-phenyl)-butan-1-one hydrochloride] gave a pIC50 of more than 7.00. Under `N[C@@H](CC(=O)N1CCC[C@H]1c1nnc(-c2ccccc2)[nH]1)Cc1ccccc1F` [Example 44, formate salt] stands 6.00 to 7.00; under `N[C@@H](CC(=O)N1CCC[C@@H]1c1nc(-c2ccccn2)no1)Cc1ccccc1F` [Example 32, (R)-3-Amino-4-(2-fluoro-phenyl)-1-[(R)-2-(3-pyridin-2-yl-[1,2,4]oxadiazol-5-yl)pyrrolidin-1-yl]-butan-1-one hydrochloride], 6.00 to 7.00; under `N[C@@H](CC(=O)N1CCC[C@H]1c1noc(-c2ccc(F)cn2)n1)Cc1cc(F)c(F)cc1F` [Example 36, (R)-3-Amino-1-{(S)-2-[5-(5-fluoro-pyridin-2-yl)-[1,2,4]oxadiazol-3-yl]-pyrrolidin-1-yl}-4-(2,4,5-trifluoro-phenyl)-butan-1-one formate salt], more than 7.00. `N[C@@H](CC(=O)N1CCC[C@H]1c1nc(-c2ccccc2)co1)Cc1ccccc1F` [Example 45, formate salt] had a pIC50 of more than 7.00.

Consider `COCC1(c2noc([C@@H]3CCCN3C(=O)C[C@H](N)Cc3cc(F)c(F)cc3F)n2)CC1` [Example 25, (R)-3-Amino-1-{(S)-2-[3-(1-methoxymethyl-cyclopropyl)-[1,2,4]oxadiazol-5-yl]-pyrrolidin-1-yl}-4-(2,4,5-trifluoro-phenyl)-butan-1-one formate salt], for which the pIC50 is more than 7.00.

Usually pIC50 stands for the negative decadic logarithm of the IC50, by convention in mol/L. Higher therefore signals a low IC50.
